{
  "source": "PubChem BioAssay AID330",
  "about": "(DTP/NCI, 2004)",
  "system": "P388 leukemia ip, CD2F1 mice, survival T/C",
  "test": "NCI In Vivo Anticancer Drug Screen. Data for tumor model P388 Leukemia (intraperitoneal) in CD2F1 (CDF1) mice",
  "settings": "endpoint: median survival time, higher = longer survival",
  "procedure,_shortened": "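Mice carrying the transplanted tumor received test compound or vehicle. Survival was recorded in each group, and the value is the treated-group measurement divided by that of the vehicle-treated control group.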",
  "key": {"[1]": {"settings": "dose: 50.0 mg/kg/injection, schedule: Q01DX005 (ip), vehicle: saline with Tween-80"}, "[2]": {"settings": "dose: 100.0 mg/kg/injection, schedule: Q01DX005 (ip), vehicle: saline with Tween-80"}, "[3]": {"settings": "dose: 200.0 mg/kg/injection, schedule: Q01DX005 (ip), vehicle: saline with Tween-80"}, "[4]": {"settings": "dose: 100.0 mg/kg/injection, schedule: Q01DX009 (ip), vehicle: saline with Tween-80"}, "[5]": {"settings": "dose: 50.0 mg/kg/injection, schedule: Q01DX009 (ip), vehicle: saline"}, "[6]": {"settings": "dose: 100.0 mg/kg/injection, schedule: Q01DX009 (ip), vehicle: saline"}, "[7]": {"settings": "dose: 200.0 mg/kg/injection, schedule: Q01DX009 (ip), vehicle: saline"}, "[8]": {"settings": "dose: 60.0 mg/kg/injection, schedule: Q01DX005 (ip), vehicle: saline with Tween-80"}, "[9]": {"settings": "dose: 120.0 mg/kg/injection, schedule: Q01DX005 (ip), vehicle: saline with Tween-80"}, "[10]": {"settings": "dose: 240.0 mg/kg/injection, schedule: Q01DX005 (ip), vehicle: saline with Tween-80"}},
  "note": "Where “and” joins values, the source holds several entries; their conditions need not be identical. Equal entries are not always repeated. Toxic doses and inconclusive results are not listed.",
  "data": [
    {"smiles": "CCOc1nc(C(=O)O)cc2sccc12", "values": [
      {"measurement": "T/C", "setting": "dose: 100.0 mg/kg/injection, schedule: Q01DX001 (ip), vehicle: Klucel (hydroxypropylcellulose) (HPC)", "result": "90 % of control"},
      {"measurement": "T/C", "setting": "dose: 200.0 mg/kg/injection, schedule: Q01DX001 (ip), vehicle: Klucel (hydroxypropylcellulose) (HPC)", "result": "93 % of control"},
      {"measurement": "T/C", "setting": "dose: 400.0 mg/kg/injection, schedule: Q01DX001 (ip), vehicle: Klucel (hydroxypropylcellulose) (HPC)", "result": "88 % of control"}
    ]},
    {"smiles": "CN(C)c1ccc(/C=C/c2ccnc3ccccc23)cc1Cl", "values": [
      {"measurement": "T/C", "setting": "dose: 12.5 mg/kg/injection, schedule: Q04DX003 (ip), vehicle: saline with Tween-80", "result": "105 % of control"},
      {"measurement": "T/C", "setting": "dose: 25.0 mg/kg/injection, schedule: Q04DX003 (ip), vehicle: saline with Tween-80", "result": "96 % of control"},
      {"measurement": "T/C", "setting": "dose: 50.0 mg/kg/injection, schedule: Q04DX003 (ip), vehicle: saline with Tween-80", "result": "95 % of control"}
    ]},
    {"smiles": "COC(=O)CC1(C(=O)OC)C2=C(C(C(=O)C(F)F)CC2)N2CCCC21", "note": "(stereo not given)", "values": [
      {"measurement": "T/C", "setting": "dose: 12.5 mg/kg/injection, schedule: Q01DX001 (ip), vehicle: Klucel (hydroxypropylcellulose) (HPC)", "result": "94 % of control"},
      {"measurement": "T/C", "setting": "dose: 25.0 mg/kg/injection, schedule: Q01DX001 (ip), vehicle: Klucel (hydroxypropylcellulose) (HPC)", "result": "97 % of control"},
      {"measurement": "T/C", "setting": "dose: 50.0 mg/kg/injection, schedule: Q01DX001 (ip), vehicle: Klucel (hydroxypropylcellulose) (HPC)", "result": "100 % of control"}
    ]},
    {"smiles": "Nc1nc(N)nc(-c2cc(Br)c(N)c(Br)c2)n1", "values": [
      {"measurement": "T/C", "setting": "[1]", "result": "95 % of control"},
      {"measurement": "T/C", "setting": "[2]", "result": "101 % of control"},
      {"measurement": "T/C", "setting": "[3]", "result": "93 % of control"}
    ]},
    {"smiles": "COC(CCl)(CBr)OC", "values": [
      {"measurement": "T/C", "setting": "dose: 25.0 mg/kg/injection, schedule: Q01DX009 (ip), vehicle: saline with Tween-80", "result": "95 % of control"},
      {"measurement": "T/C", "setting": "dose: 50.0 mg/kg/injection, schedule: Q01DX009 (ip), vehicle: saline with Tween-80", "result": "97 % of control"},
      {"measurement": "T/C", "setting": "[4]", "result": "105 % of control"}
    ]},
    {"smiles": "CCOC(=O)CCC(NC(=O)c1ccc(NCc2ccc3nc(N)nc(N)c3c2C)cc1)C(=O)OCC", "note": "(stereo not given)", "values": [
      {"measurement": "T/C", "setting": "dose: 0.01 mg/kg/injection, schedule: Q01DX009 (ip), vehicle: saline + alcohol", "result": "108 % of control and 109 % of control"},
      {"measurement": "T/C", "setting": "dose: 0.02 mg/kg/injection, schedule: Q01DX009 (ip), vehicle: saline + alcohol", "result": "98 % of control and 113 % of control"},
      {"measurement": "T/C", "setting": "dose: 0.03 mg/kg/injection, schedule: Q01DX009 (ip), vehicle: saline + alcohol", "result": "153 % of control and 162 % of control"},
      {"measurement": "T/C", "setting": "dose: 0.06 mg/kg/injection, schedule: Q01DX001 (ip), vehicle: saline + alcohol", "result": "100 % of control and 88 % of control"},
      {"measurement": "T/C", "setting": "dose: 0.06 mg/kg/injection, schedule: Q01DX009 (ip), vehicle: saline + alcohol", "result": "170 % of control"},
      {"measurement": "T/C", "setting": "dose: 0.13 mg/kg/injection, schedule: Q01DX001 (ip), vehicle: saline + alcohol", "result": "111 % of control and 117 % of control"},
      {"measurement": "T/C", "setting": "dose: 0.25 mg/kg/injection, schedule: Q01DX001 (ip), vehicle: saline + alcohol", "result": "109 % of control and 110 % of control"}
    ]},
    {"smiles": "C1CNCCSCCCSCCNC1", "values": [
      {"measurement": "T/C", "setting": "dose: 25.0 mg/kg/injection, schedule: Q01DX009 (ip), vehicle: saline", "result": "100 % of control"},
      {"measurement": "T/C", "setting": "[5]", "result": "98 % of control"},
      {"measurement": "T/C", "setting": "[6]", "result": "89 % of control"},
      {"measurement": "T/C", "setting": "[7]", "result": "87 % of control"}
    ]},
    {"smiles": "CC(C)C(Sc1nc(N)nc2nc[nH]c12)C(=O)O", "note": "(stereo not given)", "values": [
      {"measurement": "T/C", "setting": "[4]", "result": "95 % of control"},
      {"measurement": "T/C", "setting": "dose: 100.0 mg/kg/injection, schedule: Q04DX003 (ip), vehicle: saline with Tween-80", "result": "95 % of control"},
      {"measurement": "T/C", "setting": "dose: 200.0 mg/kg/injection, schedule: Q01DX009 (ip), vehicle: saline with Tween-80", "result": "100 % of control"},
      {"measurement": "T/C", "setting": "dose: 200.0 mg/kg/injection, schedule: Q04DX003 (ip), vehicle: saline with Tween-80", "result": "100 % of control"},
      {"measurement": "T/C", "setting": "dose: 400.0 mg/kg/injection, schedule: Q01DX009 (ip), vehicle: saline with Tween-80", "result": "104 % of control"},
      {"measurement": "T/C", "setting": "dose: 400.0 mg/kg/injection, schedule: Q04DX003 (ip), vehicle: saline with Tween-80", "result": "95 % of control"}
    ]},
    {"smiles": "CC(O)C(C)(C)S(=O)(=O)CCCc1ccccc1", "note": "(stereo not given)", "values": [
      {"measurement": "T/C", "setting": "[8]", "result": "107 % of control"},
      {"measurement": "T/C", "setting": "[9]", "result": "107 % of control"},
      {"measurement": "T/C", "setting": "[10]", "result": "108 % of control"}
    ]},
    {"smiles": "O=C(OCCN(CCOC(=O)c1ccc([N+](=O)[O-])cc1)c1c[nH]c(=O)[nH]c1=O)c1ccc([N+](=O)[O-])cc1", "values": [
      {"measurement": "T/C", "setting": "[1]", "result": "96 % of control"},
      {"measurement": "T/C", "setting": "[2]", "result": "104 % of control"},
      {"measurement": "T/C", "setting": "[3]", "result": "96 % of control"}
    ]},
    {"smiles": "CN1CCN(CCSSCCN2CCN(C)CC2)CC1", "values": [
      {"measurement": "T/C", "setting": "[5]", "result": "109 % of control"},
      {"measurement": "T/C", "setting": "[6]", "result": "104 % of control"},
      {"measurement": "T/C", "setting": "[7]", "result": "109 % of control"}
    ]},
    {"smiles": "NS(=O)(=O)c1ccc(NCc2c3ccccc3nc3cc(Cl)ccc23)cc1", "values": [
      {"measurement": "T/C", "setting": "[8]", "result": "104 % of control"},
      {"measurement": "T/C", "setting": "[9]", "result": "95 % of control"},
      {"measurement": "T/C", "setting": "[10]", "result": "94 % of control"}
    ]},
    {"smiles": "CCOC(=O)NCCCCCCNC(=O)OCC", "values": [
      {"measurement": "T/C", "setting": "dose: 50.0 mg/kg/injection, schedule: Q01DX005 (ip), vehicle: Klucel (hydroxypropylcellulose) (HPC)", "result": "99 % of control and 90 % of control"},
      {"measurement": "T/C", "setting": "dose: 100.0 mg/kg/injection, schedule: Q01DX005 (ip), vehicle: Klucel (hydroxypropylcellulose) (HPC)", "result": "90 % of control and 95 % of control"},
      {"measurement": "T/C", "setting": "dose: 200.0 mg/kg/injection, schedule: Q01DX005 (ip), vehicle: Klucel (hydroxypropylcellulose) (HPC)", "result": "93 % of control and 98 % of control"}
    ]},
    {"smiles": "CCOC(=O)c1c(C)cc2ccccn12", "values": [
      {"measurement": "T/C", "setting": "[8]", "result": "103 % of control"},
      {"measurement": "T/C", "setting": "[9]", "result": "103 % of control"},
      {"measurement": "T/C", "setting": "[10]", "result": "105 % of control"}
    ]}
  ]
}
